# Assay results: PMC4636139, “Amphipols Outperform Dodecylmaltoside Micelles in Stabilizing Membrane Protein Structure in the Gas Phase” (Analytical Chemistry, 2014)
# Key:
# Mhp1 = target: T1, Mhp1 (Microbacterium maritypicum, UniProt D6R8X8); assay: tryptophan fluorescence quenching titration; assay type: binding
# T1 construct: gene hyuP; His-tagged (Ni-NTA, HisProbe blot), expressed in E. coli inner membranes, solubilized in DDM or trapped in A8-35
# T1 sequence (D6R8X8 1-489): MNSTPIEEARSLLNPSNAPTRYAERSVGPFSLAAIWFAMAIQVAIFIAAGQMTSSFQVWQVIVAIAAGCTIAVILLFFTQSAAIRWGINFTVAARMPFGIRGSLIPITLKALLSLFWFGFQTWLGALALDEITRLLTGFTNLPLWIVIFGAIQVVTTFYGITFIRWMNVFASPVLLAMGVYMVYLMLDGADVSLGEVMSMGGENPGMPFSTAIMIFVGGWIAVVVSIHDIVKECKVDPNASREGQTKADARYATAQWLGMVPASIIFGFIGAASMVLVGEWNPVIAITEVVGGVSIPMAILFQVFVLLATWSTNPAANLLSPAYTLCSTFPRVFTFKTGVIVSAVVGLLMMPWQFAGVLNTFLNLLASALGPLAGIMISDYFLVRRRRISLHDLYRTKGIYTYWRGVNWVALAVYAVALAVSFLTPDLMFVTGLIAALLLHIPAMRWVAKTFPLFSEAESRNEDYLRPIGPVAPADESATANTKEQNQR
# Protocol: tryptophan fluorescence quenching titration on Mhp1 | The activity of Mhp1 was evaluated by monitoring binding to L-benzylhydantoin, a known ligand
# GalP = target: T2, GalP (Escherichia coli, UniProt P0AEP1); assay: tryptophan fluorescence quenching titration; assay type: binding
# T2 construct: His-tagged (Ni-NTA, HisProbe blot), expressed in E. coli inner membranes, solubilized in DDM or trapped in A8-35
# T2 sequence (P0AEP1 1-464): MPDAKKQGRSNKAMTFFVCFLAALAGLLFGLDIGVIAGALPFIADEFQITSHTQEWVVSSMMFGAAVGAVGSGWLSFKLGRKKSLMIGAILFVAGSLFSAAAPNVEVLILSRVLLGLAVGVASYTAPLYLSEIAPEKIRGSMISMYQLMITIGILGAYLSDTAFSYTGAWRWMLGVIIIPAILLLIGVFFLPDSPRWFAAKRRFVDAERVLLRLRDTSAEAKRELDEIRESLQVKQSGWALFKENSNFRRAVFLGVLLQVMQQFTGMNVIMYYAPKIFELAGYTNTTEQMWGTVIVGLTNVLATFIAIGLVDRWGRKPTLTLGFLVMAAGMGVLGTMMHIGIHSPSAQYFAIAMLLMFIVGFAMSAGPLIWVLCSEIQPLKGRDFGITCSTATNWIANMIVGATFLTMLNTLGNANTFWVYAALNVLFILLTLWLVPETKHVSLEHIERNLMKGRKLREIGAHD
# Protocol: tryptophan fluorescence quenching titration on GalP | GalP activity was assessed by monitoring binding to the small molecule inhibitor forskolin
Kd (Mhp1),Kd (GalP),SMILES
17.6 ± 1.8 µM,–,O=C1NC(=O)[C@H](Cc2ccccc2)N1 [L-benzylhydantoin]
–,63 ± 19 µM,C=C[C@@]1(C)CC(=O)[C@]2(O)[C@@]3(C)[C@@H](O)CCC(C)(C)[C@@H]3[C@H](O)[C@H](OC(C)=O)[C@@]2(C)O1 [forskolin]
